Data set [1] has as its target T1, 5-HT6R (Homo sapiens, UniProt P50406). The data set can be described thus: Radioligand binding, [3H]-LSD displacement, HEK-293 cells. More on the design: expressed in transfected cells. As to conditions: Table 1; HEK293 cells; three independent binding experiments; read-out: Ki [nM] ± SEM at the 5-HT6R. The protocol:
All experiments were performed in HEK-293 cells, which stably express the human 5-HT1A, 5-HT6, 5-HT7b, and D2L receptors, or using CHO-K1 cells expressing human serotonin 5-HT2A receptor, following the previously reported procedures. For displacement studies, the following radioligands (PerkinElmer, USA) at given concentrations were used at: 2.5 nM [^3H]-8-OH-DPAT (135.2 Ci/ mmol); 1 nM [^3H]-ketanserin (53.4 Ci/mmol); 2 nM [^3H]-LSD (83.6 Ci/mmol); 0.8 nM [^3H]-5-CT (39.2 Ci/mmol) or 2.5 nM [^3H]-raclopride (76.0 Ci/mmol) for 5-HT1A, 5-HT2A, 5-HT6, 5-HT7b and D2L receptors, respectively. All tested compounds were evaluated in triplicate at 7 concentrations (10^−10–10^−4 M). The inhibition constants (Ki) were calculated from the Cheng–Prusoff equation [25]. A detailed description is reported in the Supporting Information.
All synthesized compounds were evaluated in ^3[H]-LSD competition binding experiments for their affinity for 5-HT6R expressed in HEK-293 cells (Table 1). Embedding the sulfonamide moiety into an unsubstituted isoindoline scaffold was sufficient to provide potent compounds 3a and 3e. […] This effect might result from the favorable localization of the bromine atom at the isoindoline fragment, which enabled compound 3k to adopt an optimal position in the receptor binding pocket via the formation of hydrophobic/steric interactions.
1. Procedure for radioligand binding assay
All experiments were carried out according to the previously published procedures. HEK293 cells stably expressing human 5-HT1A, 5-HT6, 5-HT7b and D2L receptors (prepared with the use of Lipofectamine 2000) or CHO-K1 cells with plasmid containing the sequence coding for the human serotonin 5-HT2A receptor (Perkin Elmer) were maintained at 37 °C in a humidified atmosphere containing 5% CO2 and grown in Dulbecco’s Modified Eagle’s Medium containing 10% dialyzed fetal bovine serum and 500 μg/ml G418 sulfate. For membrane preparation, cells were cultured in 150 cm2 flasks, grown to 90% confluence, washed twice with pre-warmed to 37 °C phosphate buffered saline (PBS) and centrifuged (200 × g) in PBS containing 0.1 mM EDTA and 1 mM dithiothreitol. Prior to membrane preparation, pellets were stored at –80 °C. Cell pellets were thawed and homogenized in 10 volumes of assay buffer using an Ultra Turrax tissue homogenizer and centrifuged twice at 35,000 × g for 15 min at 4 °C, with incubation for 15 min at 37 °C between the centrifugations. The composition of the assay buffers was experimentally selected to achieve the […]
5-HT1AR: 50 mM Tris HCl, 0.1 mM EDTA, 4 mM MgCl2, 10 μM pargyline and 0.1% ascorbate; 5-HT2AR: 50 mM Tris HCl, 0.1 mM EDTA, 4 mM MgCl2 and 0.1% ascorbate;
5-HT6R: 50 mM Tris HCl, 0.5 mM EDTA and 4 mM MgCl2; 5-HT7bR: 50 mM Tris HCl, 4 mM MgCl2, 10 μM pargyline and 0.1% ascorbate; D2LR: 50 mM Tris HCl, 1 mM EDTA, 4 mM MgCl2, 120 mM NaCl, 5 mM KCl, 1.5 mM CaCl2 and 0.1% ascorbate).
All assays were carried out in a total volume of 200 μL in 96-well plates for 1 h at 37 °C, except 5-HT1AR and 5-HT2AR which were incubated at room temperature and 27 °C, respectively.
The process of equilibration was terminated by rapid filtration through Unifilter plates with a 96-well cell harvester and radioactivity retained on the filters was quantified on a Microbeta plate reader (PerkinElmer, USA). For displacement studies the assay samples contained as radioligands (PerkinElmer, USA): 2.5 nM [3H]-8-OH-DPAT (135.2 Ci/ mmol) for 5-HT1AR; 1 nM [3H]-ketanserin (53.4 Ci/mmol) for 5-HT2AR; 2 nM [3H]-LSD (83.6 Ci/mmol) for 5-HT6R; 0.8 nM [3H]-5-CT (39.2 Ci/mmol) for 5-HT7R or 2.5 nM [3H]-raclopride (76.0 Ci/mmol) for D2LR. Non-specific binding was defined in the presence of 10 μM of 5-HT in 5-HT1AR and 5-HT7R binding experiments, 20 μM of mianserin for 5-HT2AR, 10 μM of methiothepine for 5-HT6R or 10 μM of haloperidol for D2LR bidning assays. Each compound was tested in triplicate at 7 concentrations (10-10–10-4 M). The inhibition constants (Ki) were calculated […]

In data set [2] the test system is 5-HT6R-operated Cdk5 signaling. As to conditions: Figure 1; cited from earlier work.
Data set [3] addresses T1, 5-HT6R. Set-up: expressed in transfected cells; host or cells: NG108-15 (mouse neuroblastoma x rat glioma hybrid), transient co-transfection with CAMYEL, Lipofectamine 2000. The settings on record: Figure 1; cited from earlier work.
Data set [4] deals with C8-D1A astrocytes. The data set can be described thus: Glioprotection against 6-OHDA-induced cytotoxicity, MTT. It is filed as cell-based, mouse. The settings on record: compound 0.25 µM, 6-OHDA 20 µM, 24 h. On the procedure: (§1) Mouse astrocytes (C8-D1A cell line, ATCC) were cultured in DMEM (Dulbecco’s Modified Eagle’s Medium) supplemented with 10% FBS (FBS; Gibco, Life Technologies, Carlsbad, CA, USA) and 1% antibiotic mixture (Gibco, Life Technologies, Carlsbad, CA, USA) at standard condition until the cells reached 80–90% confluence. Cells were harvested and seeded in 96-well plates at a density of 5000 cells/well. All experiments were conducted with a reduced amount of serum equal to 2.5%. The optimal amount of serum was determined experimentally on the basis of preliminary studies. […] Then 6-OHDA (20 µM) or rotenone (0.5 µM) were added and co-incubated for the next 24 h. The ability of tested compounds to prevent 6-OHDA-induced or rotenone-induced cytotoxicity was assessed by MTT assay following the protocol described above. The experiments were run three times in triplicates.
(§2) Considering the pivotal physiological role of astrocytes in contrasting oxidative stress and promoting tissue repair, supporting their neuroprotective function might be regarded as a tangible strategy to improve the current therapeutic needs in the treatment of neurodegenerative disorders. […] For this purpose, cells were co-incubated with the evaluated compounds (at the non-toxic concentration of 0.25 µM) and 6-OHDA or ROT (20 and 0.5 µM, respectively). After 24 h of incubation, the viability of astrocytes was determined using the MTT assay.

In data set [5] the test system is C8-D1A astrocytes. Nature of the data set: Glioprotection against rotenone-induced cytotoxicity, MTT. It is filed as cell-based, mouse. As to conditions: compound 0.25 µM, rotenone 0.5 µM, 24 h. On the procedure: as §1, §2
Data set [6] in a line: Cytotoxicity, MTT test, HepG2. Format: cell-based. As to conditions: human, HepG2 cells (human hepatocellular carcinoma). On the procedure: (§3) Hepatotoxicity, neurotoxicity, and glial cytotoxicity were investigated using the following cellular models: human hepatocellular carcinoma (HepG2), human neuroblastoma (SHSY-5Y), and mouse astrocytes (C8-D1A), all from ATCC (American Type Culture Collection, Manassas, VA, USA). Cells were cultured in appropriate culture media recommended by ATCC supplemented with 10% fetal bovine serum (FBS; Gibco, Life Technologies, Carlsbad, CA, USA) and 1% antibiotic mixture (Gibco, Life Technologies, Carlsbad, CA, USA). Cells were cultured at standard conditions (5% CO2, 95% humidity, 37 °C). For cytotoxicity experiments, cells were seeded into 96 well plates at an initial density of 2000 cells/well. After overnight incubation, cells were treated with 3e, 3f, and 3g in a concentration range of 0.78–50 µM for 48 h; then, an MTT assay was performed as described previously. Briefly, following cell exposure, 10 µL of MTT reagent was added to each well. After the next 4 h, the medium was aspirated, and formazan produced in cells appeared as dark crystals in the bottom of the wells. Next, 100 µL DMSO was added to each well. Then, the optical density of the solution (OD) at 570 nm was determined on a plate reader (Spectra Max iD3, Molecular Devices, San Jose, CA, USA). The experiments were run three times in triplicates.

Data set [7] can be described thus: Cytotoxicity, MTT test, SH-SY5Y. It is filed as cell-based. The settings on record: human, SH-SY5Y cells (human neuroblastoma). On the procedure: as §3
Background: Tetrazolium dyes change colour on reduction, which living cells bring about.

A short description of data set [8]: Cytotoxicity, MTT test, C8-D1A. It is filed as cell-based. As to conditions: mouse, C8-D1A cells (mouse astrocytes). On the procedure:
as §3

As usually defined, the Ki is the dissociation constant of the complex between target and ligand, obtained from inhibition or displacement. What is called IC50 is the midpoint of a concentration-inhibition curve.

Where “and” joins values, the source holds several entries; their conditions need not be identical. Equal values may be shown once. Some results are limits rather than exact numbers.

T1 sequence (P50406 whole entry): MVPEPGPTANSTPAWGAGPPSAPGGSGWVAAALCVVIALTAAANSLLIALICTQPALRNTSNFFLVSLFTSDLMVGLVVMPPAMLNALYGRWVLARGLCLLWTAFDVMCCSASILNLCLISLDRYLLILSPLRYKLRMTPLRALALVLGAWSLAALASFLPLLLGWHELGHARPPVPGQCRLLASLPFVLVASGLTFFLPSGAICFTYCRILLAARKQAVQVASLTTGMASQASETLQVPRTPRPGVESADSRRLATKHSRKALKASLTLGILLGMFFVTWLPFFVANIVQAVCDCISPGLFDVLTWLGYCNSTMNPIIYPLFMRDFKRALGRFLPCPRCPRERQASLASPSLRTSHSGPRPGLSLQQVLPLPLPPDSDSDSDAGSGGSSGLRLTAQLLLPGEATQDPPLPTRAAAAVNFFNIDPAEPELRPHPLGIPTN

Turning to `O=S(=O)(c1ccccc1N1CCNCC1)N1Cc2cccc(Cl)c2C1` [3j, 4-Chloro-2-{[2-(piperazin-1-yl)phenyl]sulfonyl}isoindoline], the Ki at 5-HT6R [1] is > 900 nM and 918 nM.
As to `O=C(N[C@@H]1CCNC1)c1ccn(S(=O)(=O)c2cccc(Cl)c2)c1-c1ccc(F)cc1` [I], the “Functional profile at Cdk5” value in data set [2] is “Inverse agonist”. On 5-HT6R [3], the “Functional profile at Gs” value is given as “Inverse agonist”.
Take `O=S(=O)(c1ccccc1N1CCNCC1)N1Cc2ccccc2C1` [3i, 2-{[2-(Piperazin-1-yl)phenyl]sulfonyl}isoindoline]: the Ki on 5-HT6R [1] was > 900 nM and 977 nM.
As for `O=S(=O)(c1ccccc1N1CCNCC1)N1Cc2ccc(Br)cc2C1` [3l, 5-Bromo-2-{[2-(piperazin-1-yl)phenyl]sulfonyl}isoindoline], the Ki on 5-HT6R [1] was > 900 nM and 1170 nM.
The same measure, in the same setting: with `O=S(=O)(c1ccc(N2CCNCC2)cc1)N1Cc2cccc(Cl)c2C1` [3b, 4-Chloro-2-{[4-(piperazin-1-yl)phenyl]sulfonyl}isoindoline] the figure was 7 ± 1 nM; with `O=S(=O)(c1cccc(N2CCNCC2)c1)N1Cc2ccc(Br)cc2C1` [3h, 5-Bromo-2-{[3-(piperazin-1-yl)phenyl]sulfonyl}isoindoline], < 5 nM and 4 nM; with `O=S(=O)(c1ccccc1N1CCNCC1)N1Cc2cccc(Br)c2C1` [3k, 4-Bromo-2-{[2-(piperazin-1-yl)phenyl]sulfonyl}isoindoline], 32 ± 5 nM.
`O=S(=O)(c1ccc(N2CCNCC2)cc1)N1Cc2cccc(Br)c2C1` [3c, 4-Bromo-2-{[4-(piperazin-1-yl)phenyl]sulfonyl}isoindoline]: at 5-HT6R [1], the Ki is 10 ± 2 nM.
`NCCc1cn(S(=O)(=O)c2c(Cl)nc3sccn23)c2ccccc12` [WAY-181187]: in the data set on C8-D1A astrocytes [4], the “effect on 6-OHDA-induced cytotoxicity” value was “slightly but not significantly enhanced the gliotoxic effects”. Moreover, the “effect on ROT-induced cytotoxicity” value with C8-D1A astrocytes [5] is given as “slightly but not significantly enhanced the gliotoxic effects”.
As for `O=S(=O)(c1ccc(N2CCNCC2)cc1)N1Cc2ccc(Br)cc2C1` [3d, 5-Bromo-2-{[4-(piperazin-1-yl)phenyl]sulfonyl}isoindoline], on 5-HT6R [1], the Ki was found to be 87 ± 12 nM.
In the case of `O=S(=O)(c1ccc(N2CCNCC2)cc1)N1Cc2ccccc2C1` [3a, 2-{[4-(Piperazin-1-yl)phenyl]sulfonyl}isoindoline], the Ki on 5-HT6R [1] stood at 6 ± 1 nM.
`COc1cccc2c1C(=O)c1c(O)c3c(c(O)c1C2=O)C[C@@](O)(C(=O)CO)C[C@@H]3O[C@H]1C[C@H](N)[C@H](O)[C@H](C)O1` [Doxorubicin, reference compound]: the values for the IC50 at 48 h in data set [6], in data set [7] and in data set [8] were 10800 nM, 4400 nM and 12300 nM, respectively.
In the case of `O=S(=O)(c1cccc(Cl)c1)n1ccc2c(N[C@H]3CCNC3)nc3ccccc3c21` [CPPQ, (S)-1-[(3-chlorophenyl)sulfonyl]-4-(pyrrolidine-3-yl-amino)-1H-pyrrolo[3,2-c]quinoline], the “effect on 6-OHDA-induced cytotoxicity” value in the data set on C8-D1A astrocytes [4] is recorded as “decreased the cytotoxicity”. In addition, the “effect on ROT-induced cytotoxicity” value in the data set with C8-D1A astrocytes [5] is “decreased the cytotoxicity”.
